Measured values as given in patent publication US5318776A, “Composition for preventing graying of the hair” (priority 1988, dated 1994).

Test system: grayed hair
Test: Half-Head technique application to scalp of men having grayed hair
Assay type: in vivo, men (40 to 60 years old)
Conditions: Examples 3 to 5; Half-Head, men, 3 months
Method: Then, the effects of preventing graying of the hair and restoring grayed hair to its natural color were evaluated by comparing the conditions of the portions observed before and after the application of Samples and the results obtained were listed in the following Table VIII. […]
Then, the effectiveness of the hair cream of the invention and that of Comp.

SMILES | effect of preventing graying of the hair and restoring grayed hair to its natural color (in words)
O=P1(O)OC[C@H]2O[C@@H](n3cnc4c3ncn3ccnc43)[C@H](O)[C@@H]2O1 [1,N^6 -etheno cAMP-K] | remarkable effects of preventing graying of the hair and restoring grayed hair to its natural color
CCN(CC)CC.Cn1cnc2c(ncn2[C@@H]2O[C@@H]3COP(=O)(O)O[C@H]3[C@H]2O)c1=N [1-methyl cAMP-triethylammonium] | remarkable effects of preventing graying of the hair and restoring grayed hair to its natural color

Test system: not listed separately
Test: Sensory test: degree of change in smell after standing at 30° C. for 3 months;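 on Stability S.E. (Sensory Evaluation): double circle means no smell deterioration on a four-grade scale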
Assay type: physicochemical
Conditions: Example 1; 30° C., 3 months
Method: (§1) One month thereafter, regenerated hair was collected from a constant area and the rate (%) of generated grayed hair to all the number of hair collected was estimated. In addition, the aforementioned hair tonic type preparations were allowed to stand at 30° C. for 3 months and the residual amount of the test compounds therein was examined by liquid chromatography as well as the degree of change in smell was also evaluated by means of sensory test.
as §1, with “compositions” for “hair tonic type preparations”, “by” for “by means of”, “test. […] In addition, the abbreviation P means the averaged added molar number of ethylene oxide residues.” for “test.”

deterioration in smell (in words) | SMILES
high deterioration in smell | CCCC(=O)Nc1ncnc2c1ncn2[C@@H]1O[C@@H]2COP(=O)(O)O[C@H]2[C@H]1OC(=O)CCC [N^6,O^2' -dibutyryl cAMP, reference compound]

Same assay, conditions: Example 2; 30° C., 3 months

deterioration in smell (in words) | SMILES
substantial deterioration in smell | CCCC(=O)Nc1ncnc2c1ncn2[C@@H]1O[C@@H]2COP(=O)(O)O[C@H]2[C@H]1OC(=O)CCC [N^6,O^2' -dibutyryl cAMP-Na, reference compound]

Same assay, conditions: Table III; 0.1% in hair tonic, 30° C., 3 months

Stability S.E. (Sensory Evaluation) | SMILES
.circleincircle. | O=P1(O)OC[C@H]2O[C@@H](n3cnc4c3ncn3ccnc43)[C@H](O)[C@@H]2O1 [1,N^6 -etheno cAMP]
.circleincircle. | Nc1ncnc2c1nc(SCc1ccccc1)n2[C@@H]1O[C@@H]2COP(=O)(O)O[C@H]2[C@H]1O [8-benzylthio cAMP]
.circleincircle. | Nc1ncnc2c1nc(F)n2[C@@H]1O[C@@H]2COP(=O)(O)O[C@H]2[C@H]1O [8-fluoro cAMP]
.circleincircle. | COc1nc2c(N)ncnc2n1[C@@H]1O[C@@H]2COP(=O)(O)O[C@H]2[C@H]1O [8-methoxy cAMP]
.circleincircle. | CSc1nc2c(N)ncnc2n1[C@@H]1O[C@@H]2COP(=O)(O)O[C@H]2[C@H]1O [8-methylthio cAMP]
.circleincircle. | Nc1ncnc2c1nc(Sc1ccccc1)n2[C@@H]1O[C@@H]2COP(=O)(O)O[C@H]2[C@H]1O [8-phenylthio cAMP]

SMILES | Stability S.E. (Sensory Evaluation)
Cn1cnc2c(ncn2[C@@H]2O[C@@H]3COP(=O)(O)O[C@H]3[C@H]2O)c1=N [1-methyl cAMP] | .circleincircle.

Same assay, conditions: Table V; 0.05% in hair tonic, 30° C., 3 months

Stability S.E. (Sensory Evaluation) | SMILES
.circleincircle. | Nc1ncnc2c1nc(Sc1ccc(Cl)cc1)n2[C@@H]1O[C@@H]2COP(=O)(O)O[C@H]2[C@H]1O [8-4-chlorophenylthio cAMP-Na]

Test system: not listed separately
Test: Stability: residual amount of test compound after standing at 30° C. for 3 months, liquid chromatography
Assay type: physicochemical
Conditions: Table III; 0.1% in hair tonic, 30° C., 3 months; 131400 min
Method: as §1
as §1, with “compositions” for “hair tonic type preparations”, “by” for “by means of”, “test. […] In addition, the abbreviation P means the averaged added molar number of ethylene oxide residues.” for “test.”

SMILES | Stability Residue(%)
Cn1cnc2c(ncn2[C@@H]2O[C@@H]3COP(=O)(O)O[C@H]3[C@H]2O)c1=N [1-methyl cAMP] | 99.6

Same assay, conditions: hair tonic, 2190 h

Stability Residue(%) | SMILES
84.5 | CCCC(=O)Nc1ncnc2c1ncn2[C@@H]1O[C@@H]2COP(=O)(O)O[C@H]2[C@H]1OC(=O)CCC [N^6,O^2' -dibutyryl cAMP-Na, reference compound]

Same assay, conditions: hair tonic, Stability Residue(%)

remaining at 2190 h [%] | SMILES
86.4 | CCCC(=O)Nc1ncnc2c1ncn2[C@@H]1O[C@@H]2COP(=O)(O)O[C@H]2[C@H]1OC(=O)CCC [N^6,O^2' -dibutyryl cAMP, reference compound]

Same assay, conditions: hair tonic, Table III; 0.1% in hair tonic, 30° C., 3 months; read-out: Stability Residue(%)

remaining at 2190 h [%] | SMILES
99.8 | O=P1(O)OC[C@H]2O[C@@H](n3cnc4c3ncn3ccnc43)[C@H](O)[C@@H]2O1 [1,N^6 -etheno cAMP]
100 | Nc1ncnc2c1nc(SCc1ccccc1)n2[C@@H]1O[C@@H]2COP(=O)(O)O[C@H]2[C@H]1O [8-benzylthio cAMP]
99.5 | Nc1ncnc2c1nc(F)n2[C@@H]1O[C@@H]2COP(=O)(O)O[C@H]2[C@H]1O [8-fluoro cAMP]
99.7 | COc1nc2c(N)ncnc2n1[C@@H]1O[C@@H]2COP(=O)(O)O[C@H]2[C@H]1O [8-methoxy cAMP]
99.9 | CSc1nc2c(N)ncnc2n1[C@@H]1O[C@@H]2COP(=O)(O)O[C@H]2[C@H]1O [8-methylthio cAMP]
100 | Nc1ncnc2c1nc(Sc1ccccc1)n2[C@@H]1O[C@@H]2COP(=O)(O)O[C@H]2[C@H]1O [8-phenylthio cAMP]

Same assay, conditions: hair tonic, Table V; 0.05% in hair tonic, 30° C., 3 months; read-out: Stability Residue(%)

remaining at 2190 h [%] | SMILES
99.9 | Nc1ncnc2c1nc(Sc1ccc(Cl)cc1)n2[C@@H]1O[C@@H]2COP(=O)(O)O[C@H]2[C@H]1O [8-4-chlorophenylthio cAMP-Na]

Test system: grayed hair (melanocytes)
Test: Inhibition of generation of grayed hair in stressed black mice
Assay type: in vivo
Conditions: Example 1, 0.1%
Method: It is known that stress is one of the causes of graying of the hair. […] Moreover, the stability of the composition with time was also estimated.
as §1
as §1, with “compositions” for “hair tonic type preparations”, “by” for “by means of”, “test. […] In addition, the abbreviation P means the averaged added molar number of ethylene oxide residues.” for “test.”

SMILES | effect of inhibiting generation of grayed hair (in words)
CCCC(=O)Nc1ncnc2c1ncn2[C@@H]1O[C@@H]2COP(=O)(O)O[C@H]2[C@H]1OC(=O)CCC [N^6,O^2' -dibutyryl cAMP, reference compound] | exhibits the grayed hair inhibitory effect

Same assay, conditions: Example 2, 0.05%

SMILES | effect of inhibiting generation of grayed hair (in words)
CCCC(=O)Nc1ncnc2c1ncn2[C@@H]1O[C@@H]2COP(=O)(O)O[C@H]2[C@H]1OC(=O)CCC [N^6,O^2' -dibutyryl cAMP-Na, reference compound] | exhibits the aforementioned effect

Same assay, conditions: Table III, 0.1% test compound in hair tonic, 0.1 ml twice a day, 1 month, control 16.5

SMILES | Rate of Grayed Hair (%)
O=P1(O)OC[C@H]2O[C@@H](n3cnc4c3ncn3ccnc43)[C@H](O)[C@@H]2O1 [1,N^6 -etheno cAMP] | 7.5
Cn1cnc2c(ncn2[C@@H]2O[C@@H]3COP(=O)(O)O[C@H]3[C@H]2O)c1=N [1-methyl cAMP] | 8.2
Nc1ncnc2c1nc(SCc1ccccc1)n2[C@@H]1O[C@@H]2COP(=O)(O)O[C@H]2[C@H]1O [8-benzylthio cAMP] | 7.2
Nc1ncnc2c1nc(F)n2[C@@H]1O[C@@H]2COP(=O)(O)O[C@H]2[C@H]1O [8-fluoro cAMP] | 7.6
COc1nc2c(N)ncnc2n1[C@@H]1O[C@@H]2COP(=O)(O)O[C@H]2[C@H]1O [8-methoxy cAMP] | 7.8
CSc1nc2c(N)ncnc2n1[C@@H]1O[C@@H]2COP(=O)(O)O[C@H]2[C@H]1O [8-methylthio cAMP] | 8.0
Nc1ncnc2c1nc(Sc1ccccc1)n2[C@@H]1O[C@@H]2COP(=O)(O)O[C@H]2[C@H]1O [8-phenylthio cAMP] | 7.1
CCCC(=O)Nc1ncnc2c1ncn2[C@@H]1O[C@@H]2COP(=O)(O)O[C@H]2[C@H]1OC(=O)CCC [N^6,O^2' -dibutyryl cAMP, reference compound] | 9.1

Same assay, conditions: Table V, 0.05% test compound in hair tonic, 0.1 ml twice a day, 1 month, control 17.1

SMILES | Rate of Grayed Hair (%)
Nc1ncnc2c1nc(Sc1ccc(Cl)cc1)n2[C@@H]1O[C@@H]2COP(=O)(O)O[C@H]2[C@H]1O [8-4-chlorophenylthio cAMP-Na] | 6.0
CCCC(=O)Nc1ncnc2c1ncn2[C@@H]1O[C@@H]2COP(=O)(O)O[C@H]2[C@H]1OC(=O)CCC [N^6,O^2' -dibutyryl cAMP-Na, reference compound] | 8.8
